Marks after values point to notes of the source that are not given here.
Assay: Measurement of LogP values by HPLC on reversed phase columns (EEC directive 79/831 Annex V.A8)
Format: physicochemical
Conditions: not given
Procedure: The abbreviations and numerations of the substituent positions used in the context of the present invention and in the following Tables are explained in detail in the section Examples hereinafter. Also, the LogP values indicated in the following Tables are explained in detail in the section Examples hereinafter. In case LogP values for different diastereoisomers of a specific compound are […], said LogP values are […] by a “+”. […] Measurement of LogP values was performed according to EEC directive 79/831 Annex V.A8 by HPLC (High Performance Liquid Chromatography) on reversed phase columns with the following methods: […] Lambda-max-values were determined using UV-spectra from 200 nm to 400 nm and the peak values of the chromatographic signals
With `Cc1cc(C)c(CN(C(=O)c2cc(N(Cc3ccccc3)Cc3ccccc3)ns2)C2CC2)c(C)c1` [I-907] the LogP was 6.25[a].
In the case of `Nc1nsc(C(=O)NCc2cncc(F)c2)c1Cl` [I-037], the LogP is reported as 0.92[a].
For `C[C@H](NC(=O)c1snc(N=C(c2ccccc2)c2ccccc2)c1Cl)C1CCCCC1` [II-003], the “LogP [a]” value was 5.93^[a].
For `Nc1nsc(C(=O)NCc2cc(F)c(F)cc2F)c1Cl` [I-677], the LogP was 2.03[a].
In the case of `CCc1ccccc1C(C)N(C(=O)c1snc(NCc2ccc(OC)cc2)c1Cl)C1CC1` (stereo not shown) [I-874], the LogP is reported as 5.14[a].
For `Nc1nsc(C(=O)NCc2ccccc2C(F)F)c1Cl` [I-124], the LogP was 2.01[a].
For `Cc1c(N)nsc1C(=O)NCc1c(F)cc(F)cc1F` [I-583], the LogP was 1.69[a].
For `COc1ccc(CNc2nsc(C(=O)NC3CCc4cc(C(C)(C)C)ccc43)c2Cl)cc1` (stereo not shown) [I-1331], the LogP was 5.22[a].
With `O=C(NCC1CCCCC1)c1snc(N(Cc2ccccc2)Cc2ccccc2)c1-c1ccc(F)cc1` [I-318] the LogP was 6.27[a].
For `Nc1cc(C(=O)NCCc2ncc(C(F)(F)F)cc2Cl)sn1` [I-919], the LogP was 2.01[a].
For `CCOC(=O)c1snc(NC(=O)c2ccccc2)c1Cl` [E-VII-020], the “LogP [a]” value was 2.45^[a].
In the case of `Cc1c(N)nsc1C(=O)NCc1cccc(F)c1F` [I-147], the LogP is reported as 1.64[a].
For `O=C(c1cc(NCc2ccccc2)ns1)N(Cc1cc(Cl)ccc1Br)C1CC1` [I-1002], the LogP was 4.51[a].
For `CCOC(=O)C1CCC(NC(=O)c2snc(N)c2Cl)CC1` (stereo not shown) [I-844], the LogP was 2.02[a].
For `Nc1nsc(C(=O)N(Cc2ccc(Cl)cc2Cl)CC2CC2)c1Cl` [I-212], the LogP was 3.74[a].
With `CC(=O)N(C(C)=O)c1nsc(C(=O)NCc2ccc(C#N)cc2)c1Cl` [I-846] the LogP was 2.12[a].
With `COc1ccc(CNc2nsc(C(=O)N(c3ccc(F)cc3F)C3CC3)c2Cl)cc1` [I-921] the LogP was 4.02[a].
With `Nc1nsc(C(=O)NCc2ccccc2Cl)c1Cl` [I-009] the LogP was 2.12[a].
For `Cc1cccc(NC(=O)c2snc(N)c2Cl)c1C` [I-925], the LogP was 2.27[a].
In the case of `COc1ccc(CNc2nsc(C(=O)NCc3ccc(Br)cc3)c2Cl)cc1` [I-366], the LogP is reported as 4.01[a].
For `O=C(NCC1CCCCO1)c1snc(N=C(c2ccccc2)c2ccccc2)c1Cl` (stereo not shown) [II-008], the “LogP [a]” value was 4.55^[a].
With `COc1ccc(CNc2nsc(C(=O)NCc3ccc(Cl)cc3C)c2Cl)cc1` [I-376] the LogP was 4.20[a].
With `CC(C)(C)OC(=O)Nc1nsc(C(=O)NCC2CCCCC2Cl)c1F` (stereo not shown) [I-1572] the LogP was 3.34[a].
With `COc1ccc(CNc2nsc(C(=O)NCc3csc(C)n3)c2Cl)cc1` [I-1217] the LogP was 2.69[a].
In the case of `COC(=O)Nc1nsc(C(=O)NCc2ccc(Cl)cc2)c1Cl` [I-579], the LogP is reported as 2.29[a].
In the case of `Nc1nsc(C(=O)NC2CCCCC2c2ccccc2)c1Cl` (stereo not shown) [I-287], the LogP is reported as 3.02[a].
In the case of `COc1ccc(CNc2nsc(C(=O)N[C@@H]3CCCC[C@H]3C)c2Cl)cc1` (relative stereo) [I-1551], the LogP is reported as 4.39[a].
With `COc1ccc(CNc2nsc(C(=O)NCc3ccc(C)o3)c2Cl)cc1` [I-674] the LogP was 3.27[a].
For `CCCC(=O)Nc1nsc(C(=O)NCC2CCCCC2)c1Cl` [I-170], the LogP was 2.84[a].
In the case of `O=C(NCCC1CCCCC1)c1snc(Cl)c1Cl` [E-II-033], the “LogP [a]” value is reported as 4.40^[a].
With `O=C(NCc1cc(F)c(F)c(F)c1)c1snc(N=S2CCCC2)c1Cl` [II-045] the “LogP [a]” value was 1.96^[a].
For `Nc1nsc(C(=O)NC2CCCCC2)c1Cl` [I-001], the LogP was 2.10[a].
With `COc1ccc(CNc2nsc(C(=O)N[C@@H](C)C3CCCCC3)c2Cl)cc1` [I-065] the LogP was 4.66[a].
For `CC(NC(=O)c1snc(N(Cc2ccccc2)Cc2ccccc2)c1-c1ccc(F)cc1)C1CCCCC1` (stereo not shown) [I-317], the LogP was 6.63[a].
For `C[C@H](NC(=O)c1snc(NCC(F)(F)F)c1Cl)C1CCCCC1` [I-427], the LogP was 4.11[a].
With `Cc1ccc(C)c(CN(C(=O)c2snc(N)c2Cl)C2CC2)c1` [I-119] the LogP was 3.04[a].
With `COc1ccc(CNc2nsc(C(=O)NCc3ccccc3F)c2Cl)cc1` [I-043] the LogP was 3.46[a].
With `Nc1cc(C(=O)NCCc2ccccc2)sn1` [I-854] the LogP was 1.52[a].
With `Nc1nsc(C(=O)N[C@@H]2CCCC[C@H]2Cl)c1I` (relative stereo) [I-1565] the LogP was 2.12[a].
In the case of `Cc1c(N)nsc1C(=O)NCc1ccccc1C(F)F` [I-157], the LogP is reported as 1.74[a].
With `O=C(c1snc(Cl)c1Cl)N(Cc1ccc(F)cc1F)C1CC1` [E-II-014] the “LogP [a]” value was 4.01^[a].
With `O=C(NCc1ccc(F)cc1F)c1cc(N(Cc2ccccc2)Cc2ccccc2)ns1` [I-322] the LogP was 4.45[a].
In the case of `COc1ccc(CNc2nsc(C(=O)NCC3CCCCC3(C)C)c2Cl)cc1` (stereo not shown) [I-056], the LogP is reported as 4.95[a].
For `COc1ccc(CN(C(=O)OC(C)(C)C)c2nsc(C(=O)N(C)OC)c2Cl)cc1` [I-1286], the LogP was 3.75[a].
With `COc1ccc(CNc2nsc(C(=O)NCC3CCCC3)c2Cl)cc1` [I-044] the LogP was 4.04[a].
In the case of `C#CCNc1nsc(C(=O)NCc2ccccc2F)c1Cl` [I-058], the LogP is reported as 2.54[a].
In the case of `COc1ccc(CNc2nsc(C(=O)NCc3ccc(OC)c(Cl)c3)c2Cl)cc1` [I-1240], the LogP is reported as 3.68[a].
For `O=C(NCC1CCCCC1)c1snc(N=S2CCOCC2)c1Cl` [II-090], the “LogP [a]” value was 2.49^[a].
With `O=C(NCC1CCCCC1)c1snc(N(Cc2ccccc2)Cc2ccccc2)c1Br` [I-541] the LogP was 6.25[a].
With `Nc1cc(C(=O)NCc2cc(Cl)cc(Cl)c2)sn1` [I-307] the LogP was 2.18[a].
In the case of `N#Cc1ccc(CNC(=O)c2snc(N)c2Cl)c(F)c1` [I-202], the LogP is reported as 1.64[a].
With `CCOC(=O)c1snc(NCc2ccc(OC)cc2)c1Cl` [E-VII-069] the “LogP [a]” value was 3.87^[a].
With `CCC(C)CNC(=O)c1snc(N)c1Cl` (stereo not shown) [I-1014] the LogP was 1.98[a].
In the case of `COc1ccc(CNc2nsc(C(=O)NCCc3ccc(F)cc3)c2Cl)cc1` [I-961], the LogP is reported as 3.72[a].
With `C#Cc1c(NC(=O)C(F)(F)F)nsc1C(=O)NCC1CCCCC1` [I-609] the LogP was 3.05[a].
In the case of `COc1ccc(CNc2nsc(C(=O)NCC3(O)CCCCC3)c2Cl)cc1` [I-105], the LogP is reported as 3.09[a].
For `CC1(C)CC1N(Cc1ccc(Cl)cc1Cl)C(=O)c1cc(N)ns1` (stereo not shown) [I-969], the LogP was 3.48[a].
For `C#CCOC(=O)Nc1nsc(C(=O)N[C@@H](C)C2CCCCC2)c1Cl` [I-137], the LogP was 3.17[a].
For `COc1ccc(CNc2nsc(C(=O)NCC3(OC)CCC(C)CC3)c2Cl)cc1` (stereo not shown) [I-823], the LogP was 4.33[a].
With `C[C@H](NC(=O)c1snc(N=CN2CCCC2)c1Cl)C1CCCCC1` [II-024] the “LogP [a]” value was 2.73^[a].
With `COc1ccc(CNc2nsc(C(=O)NCc3cnn(CC(F)(F)F)c3)c2Cl)cc1` [I-1258] the LogP was 2.84[a].
With `COc1ccc(CNc2nsc(C(=O)NCc3cccc(C)n3)c2Cl)cc1` [I-1345] the LogP was 1.78[a].
In the case of `CCc1c(CNC(=O)c2snc(NCc3ccc(OC)cc3)c2Cl)cnn1CC` [I-1333], the LogP is reported as 2.82[a].
In the case of `N#Cc1ccc(CNC(=O)c2snc(N)c2Cl)cc1` [I-783], the LogP is reported as 1.44[a].
With `COc1ccc(CNC(=O)c2cc(N)ns2)cc1` [I-052] the LogP was 1.28[a].
In the case of `Nc1nsc(C(=O)NCC2CCCC2O)c1Cl` (single isomer, unassigned) [I-773], the LogP is reported as 0.88[a].
With `O=C(Nc1nsc(C(=O)NCc2ccc(Cl)cc2)c1Cl)c1ccccc1` [I-569] the LogP was 2.97[a].
For `O=C(Nc1ccc(Cl)cc1Cl)c1cc(N(Cc2ccccc2)Cc2ccccc2)ns1` [I-903], the LogP was 5.74[a].
With `CC(C)N(Cc1ccc(Cl)cc1Cl)C(=O)c1cc(N)ns1` [I-937] the LogP was 3.08[a].
In the case of `Cc1c(N)nsc1C(=O)NCc1ccc(C#N)cc1F` [I-150], the LogP is reported as 1.35[a].
In the case of `COc1ccc(CNc2nsc(C(=O)NCC3CCC(C(F)(F)F)CC3)c2Cl)cc1` (stereo not shown) [I-107], the LogP is reported as 4.30[a].
With `COc1ccc(CNc2nsc(C(=O)NC(C)c3ccc(OC)c(OC)c3)c2Cl)cc1` (stereo not shown) [I-1348] the LogP was 3.25[a].
For `CCOC(=O)c1snc(N(C(C)=O)C(C)=O)c1Cl` [E-VII-022], the “LogP [a]” value was 2.47^[a].
In the case of `COc1ccc(CNc2nsc(C(=O)NCc3cncn3C)c2Cl)cc1` [I-1213], the LogP is reported as 1.35[a].
In the case of `COc1ccc(CNc2nsc(C(=O)N(Cc3cc(Cl)ccc3F)C3CC3)c2Cl)cc1` [I-988], the LogP is reported as 4.49[a].
In the case of `COc1ccc(CNc2nsc(C(=O)NCc3cccc(OC)n3)c2Cl)cc1` [I-1319], the LogP is reported as 3.41[a].
For `COc1ccc(CNc2nsc(C(=O)N(CC3C(C)CCCC3(C)C)C3CC3)c2Cl)cc1` (stereo not shown) [I-859], the LogP was 6.09[a].
In the case of `COc1ccc(CNc2nsc(C(N)=O)c2Cl)cc1` [II-106], the “LogP [a]” value is reported as 1.94^[a].
With `COc1ccc(CNc2nsc(C(=O)N(Cc3ccccc3)C3CC3)c2Cl)cc1` [I-897] the LogP was 4.14[a].
In the case of `CCc1ccc(CNC(=O)c2snc(NCc3ccc(OC)cc3)c2Cl)nc1` [I-1193], the LogP is reported as 2.34[a].
With `O=C(NCc1cccc(Cl)c1Cl)c1cc(N(Cc2ccccc2)Cc2ccccc2)ns1` [I-313] the LogP was 5.01[a].
For `O=C(NCc1ccccc1Cl)c1snc(N=C(c2ccccc2)c2ccccc2)c1Cl` [II-004], the “LogP [a]” value was 4.89^[a].
For `COc1ccc(CNc2nsc(C(=O)NS(C)(=O)=O)c2Cl)cc1` [I-883], the LogP was 1.86[a].
With `COc1ccc(CNc2nsc(C(=O)NCc3cnn(C)c3C)c2Cl)cc1` [I-1341] the LogP was 2.33[a].
For `COc1ccc(CNc2nsc(C(=O)NC3CCCC3c3ccccc3)c2Cl)cc1` (stereo not shown) [I-269], the LogP was 4.41[a].
With `Nc1cc(C(=O)NCc2ccccc2F)sn1` [I-305] the LogP was 1.41[a].
For `COc1ccc(CNc2nsc(C(=O)NCc3cccc(Cl)c3C)c2Cl)cc1` [I-1243], the LogP was 4.20[a].
With `CCC1CCCCC1NC(=O)c1snc(NCc2ccc(OC)cc2)c1Cl` (stereo not shown) [I-1215] the LogP was 4.49[a].
For `COc1ccc(CNc2nsc(C(=O)NCC3(C)CCCCC3)c2Cl)cc1` [I-079], the LogP was 4.69[a].
For `COc1ccc(CNc2nsc(C(=O)NC(c3ccccc3C)C(C)C)c2Cl)cc1` (stereo not shown) [I-1192], the LogP was 4.69[a].

Same assay, conditions: HPLC LC-UV, acidic range, 0.1% formic acid in water and acetonitrile as eluent
Molecule `O=C(NCC1CCCCC1)c1snc(Cl)c1Cl` [E-II-001, 3,4-dichloro-N-(cyclohexylmethyl)isothiazole-5-carboxamide] has a chromatographic logP of 4.11.

From patent publication US20190110476A1, “NOVEL ISOTHIAZOLAMIDES, PROCESSES FOR THEIR PREPARATION AND THEIR USE AS FUNGICIDES” (priority 2014, published 2019)
